Laboratory results taken from patent publication US20240212786A1, “METHOD OF DISCOVERING NOVEL ANTICANCER DRUG USING CO-ESSENTIALITY NETWORK, AND AN APPARATUS THEREOF” (POSTECH RESEARCH AND BUSINESS DEVELOPMENT FOUNDATION, priority 2022, published 2024).
Counter-ions that a name gives are not always drawn.

Tests used:
[1] = tested on: COADREAD differential gene expression; 15 large intestine cancer cell lines; assay: Reversal gene expression (RGE) effect from CMap L1000 profiles; assay type: cell-based
Source text: To estimate the efficacy of the drug by altering the gene expression to be a reversal of that in cancer conditions, the present inventors used the L1000 dataset from CMap[9]. From the L1000 dataset, the present inventors obtained 6,056 compounds with PubChem IDs and expression profiles for 978 genes directly measured in 15 cancer cell lines whose primary site was the large intestine: CL34, HCT116, HELA, HT115, HT29, LOVO, MDST8, NCIH508, NCIH716, RKO, SNU1040, SNUC5, SW480, SW620, and SW948. The present inventors initially computed the RGE effect between the differential gene expression of COADREAD (obtained via CREEDS[10], signature ID: dz552) and the compound's transcriptional profile using Zhang's connection score, that is, the absolute value of the anti-correlated, standardized ranked connection score. Since drugs have multiple transcriptional profiles for each cell line depending on the treatment dose and time, the present inventors calculated the max RGE effect for each cell line and used the median RGE effect across cell lines as a representative value. Finally, the performance of the network in predicting the drug's RGE effect was measured using the Spearman correlation coefficient between the TC score and the RGE effect of drugs that exist in both PanDrugs and CMap.

[2] = tested on: cancer cell lines of COADREAD; conditions: median over COADREAD cancer cell lines, PRISM secondary screen data; cited from earlier work
SNU398 cells = assay: MTS cell viability assay, SNU398; assay type: cell-based; conditions: Homo sapiens, SNU-398, 72 h
Experimental: (§1) The human LIHC cell lines SNU398, SK-HEP-1, and Huh7 were obtained from the Korean Cell Line Bank (Scoul, Korea), and HepG2 cells were obtained from the American Type Culture Collection (Manassas, VA, USA). SNU398 and Huh7 were cultured in Roswell Park Memorial Institute (RPMI) 1640 medium (Welgene) supplemented with 10% fetal bovine serum (FBS, Merck), 100 IU/mL penicillin, and 100 μg/mL streptomycin (Welgene). SK-HEP-1 and HepG2 were maintained in Eagle's Minimum Essential medium (EMEM, Lonza) supplemented with 10% FBS. All cells were incubated at 37° C. in a humidified incubator with 5% CO2.
(§2) To assess cell viability, SNU398, SK-HEP-1, Huh7, and HepG2 cells were plated in 96-well plates at a density of 8×10^3 or 1×10^4 cells per well. […] After incubation for 72 h, cell viability was determined using the phenazine methosulfate (PMS)/3-(4,5-dimethylthiazol-2-yl)-5-(3-carboxymethoxyphenyl)-2-(4-sulfophenyl)-2H-tetrazolium, inner salt (MTS) assay using the Cell Titer 96 Aqueous Non-Radioactive Cell Proliferation Assay kit (Promega, Madison, WI, USA) according to the manufacturer's instructions. The absorbance at 490 nm was measured using a microplate reader (Multiskan SkyHigh Microplate Spectrophotometer, Thermo Scientific). IC50 values were calculated from dose-response curves using GraphPad Prism 9 (GraphPad Software).

Huh7 cells = assay: MTS cell viability assay, Huh7; assay type: cell-based; conditions: Homo sapiens, Huh-7, 72 h
Experimental: as §1, §2

HepG2 cells = assay: MTS cell viability assay, HepG2; assay type: cell-based; conditions: Homo sapiens, 72 h
Experimental: as §1, §2

SK-HEP-1 cells = assay: MTS cell viability assay, SK-HEP-1; assay type: cell-based; conditions: Homo sapiens, SK-HEP1, 72 h
Experimental: as §1, §2

| SMILES | rank percentile of RGE effect ([1]; COADREAD) [%] | RGE effect ([1]; median across cell lines of max RGE effect, Zhang's connection score, COADREAD signature) | IC50 [2] [µM] | IC50 (SNU398 cells) [µM] | IC50 (Huh7 cells) [µM] | IC50 (HepG2 cells) [µM] | IC50 (SK-HEP-1 cells) [µM] |
| --- | --- | --- | --- | --- | --- | --- | --- |
| Cn1c(=O)c(F)c(Nc2ccc(I)cc2F)c2c(=O)n(C[C@@H](O)CO)cnc21 [TAK-733] | 91.18 | 0.123 | 0.00103 |  |  |  |  |
| CC(C)C[C@H](NC(=O)CNC(=O)c1cc(Cl)ccc1Cl)B1OC(=O)C(CC(=O)O)(CC(=O)O)O1 [ixazomib citrate] |  |  |  | 0.746 | 0.137 | 0.197 | 0.27 |
